In one assay the test system is HT-29 cells. Kind of assay: Cellular RIP1 inhibitory activity: necroptosis of HT-29 cells induced by TNF-α/SMAC mimetic/zVAD-FMK, CellTiter-Glo viability. It counts as cell-based. The following applies: Homo sapiens, HT-29, 20 h, read-out: EC50 (Cell activity; Necrosis or Necroptosis Inhibitory Activity). The protocol:
In Table 2, activity is provided as follows: +++=0.1 nM≤EC50<100 nM; ++=100 nM≤EC50K<1000 nM; +=1000 nM≤EC50K<10000 nM.
Compounds 1-67 (denoted as Compound Nos. 1 through 67 in Table 1) of the disclosure were tested for binding and cellular RIP1 inhibitory activity following the experimental procedures described below.
Cell line: HT-29 (ATCC® HTB-38™)
Culture medium: McCOY's 5A, Gibco, Cat No. 16600-082
DMSO: Sigma, Cat No. 67-68-5, 1 L
Assay plate: Corning #3903
Compound dilution plate: Corning #3357
Inducers: TNFα, GenScript, Cat No. Z01001-50,
SmacM, Cat. No., HY-15989, MedChemExpress (MCE)
Z_VAD FMK, TargetMol, T6013
Cell Titer-Glo® Luminescent Cell Viability Assay Kit: Promega, Cat No. G7573
1. HT-29 cells were checked every day to make sure that they were healthy and growing as expected. They were subjected to sub-culturing when they were approximately 80% confluent.
2. The culture medium, McCOY's 5A medium (Gibco, Cat No. 16600-082) with 10% fetal bovine serum or FBS (Gibco, Cat No. 10099-141C), was pre-warmed in a 37° C. water bath for at least 30 min.
3. When the cells had reached a desired level of confluency of 80% in a T75 flask, the medium was aspirated, and the cells were washed with warm phosphate buffered saline or PBS two times.
4. 2-3 ml fresh warm trypsin (Gibco, Cat No. 25200-056) solution was added to the washed cells. The flask with the cells was transferred to a 37° C. incubator.
5. After 5 minutes, the side of the flask was tapped, and the flask was examined under a microscope for detachment of the cells to the flask. If necessary, the cells were kept in the incubator for an additional 5-10 minutes, with occasional tapping, until lifting was complete.
6. The trypsin reaction was neutralized by transferring 6-9 ml cell culture medium to sterile 15 ml conical tubes, and by centrifuging the cell culture at 300×g for 7 minutes to pellet the cells (supernatant decanted).
7. The cells were resuspended in fresh cell culture medium and the cell counting was performed using a hemocytometer.
8. 100 μl of the resuspended cell culture medium containing ˜5,000 cells were transferred into each well of the sterile 96-well cell culture plate (Corning 3903) and cultured overnight at 37° C. with 5% CO2.
Compound Titration and Treatment
1. All test compounds were dissolved in DMSO (Dimethyl sulfoxide) to create a 20 mM stock.
2. 3 μl of each compound 20 mM stock was mixed with 27 μl DMSO, and the compound solution was further diluted at a titration ratio of 1:3 (20 μl compound solution+40 μl DMSO) till the 10 points end.
3. All culture medium was removed from assay plates filled with HT-29 cell cultures. The cells were then washed with 1 PBS, and resuspended in fresh, FBS-free McCOY's 5A medium containing a cocktail of TNF-α (10 ng/ml), a SMAC mimetic compound (6 μM) and Z-VAD-fluoromethylketone or zVAD-FMK (10 μM) to stimulate the HT-29 cells to increase RIP1 kinase levels and necroptosis.
4. 0.5 μL of the diluted compound solution was added to the corresponding 96-well assay plates.
5. The assay plates were incubated for 20 hours at 37° C. with 5% CO2.
1. The CellTiter-Glo® Luminescent Cell Viability Assay was employed to detect the ATP levels of viable HT-29 cells.
2. The CellTiter-Glo® buffer and the lyophilized substrate were equilibrated to room temperature prior to use.
3. The CellTiter-Glo® substrate was resuspended with CellTiter-Glo® buffer, then mixed by gently vortexing to obtain a homogeneous solution.
4. 20 μl the enzyme/substrate mixture was transferred by multi-channel pipetting into 96-well assay plates.
5. The assay plates were placed on an orbital shaker and the contents were shaken for 3 minutes to induce cell lysis.
6. The assay plates were incubated at room temperature for 10 minutes to stabilize the luminescent signal.
7. The luminescence signals were read and recorded with EnVision.
8. The geometric mean EC50 values were calculated from 10 points response dose with duplicates. […]
For orientation: Cellular ATP, detected with luciferase, serves as a proxy for viable cell number.
As usually defined, the EC50 is the midpoint of the concentration-response curve. For the compound `O=C(c1ccnc(N2CCN(C(=O)N3N=CC[C@H]3c3cc(F)cc(F)c3)CC2)n1)N1CCC1` [Compound 36, (S)-azetidin-1-yl(2-(4-(5-(3,5-difluorophenyl)-4,5-dihydro-1H-pyrazole-1-carbonyl)piperazin-1-yl)pyrimidin-4-yl)methanone], the EC50 was 0.1 to 100 nM.

Still in this assay, the particulars now being: Homo sapiens; HT-29 cells; TNF-α 10 ng/ml, SMAC mimetic 6 μM, zVAD-FMK 10 μM; 20 hours; geometric mean, 10 points, duplicates; read-out: EC50 (Cell activity; Necrosis or Necroptosis Inhibitory Activity).
Take `N#Cc1cc(F)cc([C@@H]2CC=NN2C(=O)N2CCN(c3nccc(C(N)=O)n3)CC2)c1` [Compound 42, (S)-2-(4-(5-(3-cyano-5-fluorophenyl)-4,5-dihydro-1H-pyrazole-1-carbonyl)piperazin-1-yl)pyrimidine-4-carboxamide]: the concentration for a half-maximal effect (EC50) was in the range of 0.1 to 100 nM. On the same count and under the same terms, then `O=C(c1nc(N2CCN(C(=O)N3N=CC[C@H]3c3cc(F)cc(F)c3)CC2)ncc1F)N1CCCC1` [Compound 8, (S)-(5-(3,5-difluorophenyl)-4,5-dihydro-1H-pyrazol-1-yl)(4-(5-fluoro-4-(pyrrolidine-1-carbonyl)pyrimidin-2-yl)piperazin-1-yl)methanone], with 0.1 to 100 nM; and `COC1(C)CN(C(=O)c2nc(N3CCN(C(=O)N4N=CC[C@H]4c4cc(F)cc(F)c4)CC3)ncc2F)C1` [Compound 22, (S)-(5-(3,5-difluorophenyl)-4,5-dihydro-1H-pyrazol-1-yl)(4-(5-fluoro-4-(3-methoxy-3-methylazetidine-1-carbonyl)pyrimidin-2-yl)piperazin-1-yl)methanone], with 0.1 to 100 nM; and `CN1CCN(C(=O)c2nc(N3CCN(C(=O)N4N=CC[C@H]4c4cc(F)cc(F)c4)CC3)ncc2F)CC1` [Compound 19, (5-(3,5-difluorophenyl)-4,5-dihydro-1H-pyrazol-1-yl)(4-(5-fluoro-4-(4-methylpiperazine-1-carbonyl)pyrimidin-2-yl)piperazin-1-yl)methanone], with 0.1 to 100 nM. On the same count and under the same terms, then `NC(=O)c1cncc(N2CCN(C(=O)N3N=CC[C@H]3c3cc(F)cc(F)c3)CC2)n1` [Compound 39, (S)-6-(4-(5-(3,5-difluorophenyl)-4,5-dihydro-1H-pyrazole-1-carbonyl)piperazin-1-yl)pyrazine-2-carboxamide], with 100 to 1000 nM; and `COC1CN(C(=O)c2nc(N3CCN(C(=O)N4N=CC[C@H]4c4cncc(F)c4)CC3)ncc2F)C1` [Compound 52, (S)-(5-fluoro-2-(4-(5-(5-fluoropyridin-3-yl)-4,5-dihydro-1H-pyrazole-1-carbonyl)piperazin-1-yl)pyrimidin-4-yl)(3-methoxyazetidin-1-yl)methanone], with 0.1 to 100 nM. Same read-out and setting: under `O=C(O)c1nc(N2CCN(C(=O)N3N=CC[C@H]3c3cc(F)cc(F)c3)CC2)ncc1F` [Compound 1, (S)-2-(4-(5-(3,5-difluorophenyl)-4,5-dihydro-1H-pyrazole-1-carbonyl)piperazin-1-yl)-5-fluoropyrimidine-4-carboxylic acid] stands 1000 to 10000 nM. In the case of `O=C(c1nc(N2CCN(C(=O)N3N=CC[C@H]3c3cc(F)cc(F)c3)CC2)ncc1F)N1CCOCC1` [Compound 18, (5-(3,5-difluorophenyl)-4,5-dihydro-1H-pyrazol-1-yl)(4-(5-fluoro-4-(morpholine-4-carbonyl)pyrimidin-2-yl)piperazin-1-yl)methanone], the 50% effective concentration (EC50) was 0.1 to 100 nM. Take `COC1CN(C(=O)c2nc(N3CCN(C(=O)N4N=CC[C@H]4c4cncc(Cl)c4)CC3)ncc2Cl)C1` (stereo in doubt) [Compound 65, (5-chloro-2-(4-(5-(5-chloropyridin-3-yl)-4,5-dihydro-1H-pyrazole-1-carbonyl)piperazin-1-yl)pyrimidin-4-yl)(3-methoxyazetidin-1-yl)methanone]: the EC50 is 0.1 to 100 nM. On to `NC(=O)c1cc(N2CCN(C(=O)N3N=CC[C@H]3c3cc(F)cc(F)c3)CC2)c(F)cn1` [Compound 67, (S)-4-(4-(5-(3,5-difluorophenyl)-4,5-dihydro-1H-pyrazole-1-carbonyl)piperazin-1-yl)-5-fluoropicolinamide], for which the 50% effective concentration (EC50) was 100 to 1000 nM.

Turning to `CN(O)C(=O)c1nc(N2CCN(C(=O)N3N=CC[C@H]3c3cc(F)cc(F)c3)CC2)ncc1F` [Compound 20, (S)-2-(4-(5-(3,5-difluorophenyl)-4,5-dihydro-1H-pyrazole-1-carbonyl)piperazin-1-yl)-5-fluoro-N-hydroxy-N-methylpyrimidine-4-carboxamide], the EC50 was 0.1 to 100 nM. As to `CC1CN(C(=O)c2nc(N3CCN(C(=O)N4N=CC[C@H]4c4cc(F)cc(F)c4)CC3)ncc2F)C1` [Compound 56, (S)-(5-(3,5-difluorophenyl)-4,5-dihydro-1H-pyrazol-1-yl)(4-(5-fluoro-4-(3-methylazetidine-1-carbonyl)pyrimidin-2-yl)piperazin-1-yl)methanone], the 50% effective concentration (EC50) lay within 0.1 to 100 nM. Same read-out and setting: then `O=C(NCCN1CCOCC1)c1ccnc(N2CCN(C(=O)N3N=CC[C@H]3c3cc(F)cc(F)c3)CC2)n1` [Compound 45, (S)-2-(4-(5-(3,5-difluorophenyl)-4,5-dihydro-1H-pyrazole-1-carbonyl)piperazin-1-yl)-N-(2-morpholinoethyl)pyrimidine-4-carboxamide], with 100 to 1000 nM; and `CCOC(=O)c1nc(N2CCN(C(=O)N3N=CC[C@H]3c3cc(F)cc(F)c3)CC2)ncc1F` [Compound 47], with 0.1 to 100 nM; and `O=C(c1nc(N2CCN(C(=O)N3N=CC[C@H]3c3cc(F)cc(F)c3)CC2)ncc1F)N1CCCCC1` [Compound 17, (5-(3,5-difluorophenyl)-4,5-dihydro-1H-pyrazol-1-yl)(4-(5-fluoro-4-(piperidine-1-carbonyl)pyrimidin-2-yl)piperazin-1-yl)methanone], with 0.1 to 100 nM. In the case of `O=C(c1nc(N2CCN(C(=O)N3N=CC[C@H]3c3cc(F)cc(F)c3)CC2)ncc1F)N1CC2(CCC2)C1` [Compound 29, (S)-(5-(3,5-difluorophenyl)-4,5-dihydro-1H-pyrazol-1-yl)(4-(5-fluoro-4-(2-azaspiro[3.3]heptane-2-carbonyl)pyrimidin-2-yl)piperazin-1-yl)methanone], the 50% effective concentration (EC50) fell in the range of 0.1 to 100 nM. As to `NC(=O)[C@@H]1CCN(C(=O)c2nc(N3CCN(C(=O)N4N=CC[C@H]4c4cc(F)cc(F)c4)CC3)ncc2F)C1` [Compound 27, (R)-1-(2-(4-((S)-5-(3,5-difluorophenyl)-4,5-dihydro-1H-pyrazole-1-carbonyl)piperazin-1-yl)-5-fluoropyrimidine-4-carbonyl)pyrrolidine-3-carboxamide], the EC50 fell in the range of 0.1 to 100 nM. Consider `COC1CN(C(=O)c2nc(N3CCN(C(=O)N4N=CC[C@H]4c4cc(F)cc(C#N)c4)CC3)ncc2F)C1` [Compound 51, (S)-3-fluoro-5-(1-(4-(5-fluoro-4-(3-methoxyazetidine-1-carbonyl)pyrimidin-2-yl)piperazine-1-carbonyl)-4,5-dihydro-1H-pyrazol-5-yl)benzonitrile], for which the EC50 was in the range of 0.1 to 100 nM. Still for that read-out and setting: then `CC(C)OC1CN(C(=O)c2nc(N3CCN(C(=O)N4N=CC[C@H]4c4cc(F)cc(F)c4)CC3)ncc2F)C1` [Compound 24, (S)-(5-(3,5-difluorophenyl)-4,5-dihydro-1H-pyrazol-1-yl)(4-(5-fluoro-4-(3-isopropoxyazetidine-1-carbonyl)pyrimidin-2-yl)piperazin-1-yl)methanone], with 0.1 to 100 nM.
